Results from PMC5749289, “Cytotoxicity Study of Cyclopentapeptide Analogues of Marine Natural Product Galaxamide towards Human Breast Cancer Cells” (Oxidative Medicine and Cellular Longevity, 2017).
Converted amounts (≈) assume the structure as drawn. Where a SMILES comes first, the peptide text is derived from it.

Experiments:
[1] = test system: normal human umbilical vein endothelial cell line (HUVECs); assay type: cell-based; details: 48 h
Description: (§1) Human hepatocellular carcinoma HepG2, human breast carcinoma MCF-7, human epitheloid cervix carcinoma HeLa, human breast carcinoma MB-MDA-231 cell lines, and a normal human umbilical vein endothelial cell line (HUVECs) were obtained from the China Cell Bank of the Institute of Biochemistry and were cultured in a DMEM culture medium (DMEM, Corning, NY, USA) containing 10% fetal bovine serum (FBS, Hyclone, Logan, UT, USA), 1% penicillin-streptomycin, and an antifungal agent in a 5% CO2-humidified atmosphere at 37°C. The culture medium was replaced once in a day. Trypsin digestion method was adopted for cell propagation. Upon reaching 80–90% confluence, the cells were rinsed twice with PBS. A certain amount of 0.25% trypsin digestion solution was then added and maintained for 3–5 min at 37°C. Afterward, DMEM culture medium containing 10% fetal bovine serum was added to terminate the digestion. The cells were then blown well to form single-cell suspensions.
(§2) The cell viability was determined by measuring the ability of cells to transform MTT (3-(4,5-dimethylthiazol-2-yl)-2,5-diphenyltetrazolium bromide) (GENView, Houston, TX, USA) to a purple formazan dye. The cells were seeded in 96-well cell culture plates at 2.5 × 10^3 cells/well for 24 h. The cells were then incubated with galaxamide and its analogues for 48 h. After incubation, 20 μL/well of MTT solution (5 mg/mL phosphate buffered saline) was added and incubated for 5 h. The medium was aspirated and replaced with 100 μL/well of DMSO to dissolve the formazan salt. The color intensity of the formazan solution, which reflects the cell growth condition, was measured at 570 nm using a microplate spectrophotometer (SpectroAma™ 250, Winooski, VT, USA).

[2] = test system: human breast carcinoma MCF-7; test: cells; assay type: cell-based
Description: as §1, §2

[3] = test system: human hepatocellular carcinoma HepG2; test: cells; assay type: cell-based; details: 48 h
Description: as §1, §2

[4] = test system: human epitheloid cervix carcinoma HeLa; test: cells; assay type: cell-based; details: 48 h
Description: as §1, §2

[5] = test system: human breast carcinoma MB-MDA-231; test: cells; assay type: cell-based; details: 48 h
Description: as §1, §2

[6] = test system: MCF-7 cells; test: Annexin V-FITC/PI apoptosis, flow cytometry; assay type: cell-based, human; details: MCF-7, 2.5, 5 and 10 μg/mL, 48 h
Description: The apoptotic cells were quantified using an Annexin V-FITC (fluorescein isothiocyanate) (Sigma-Aldrich, St. Louis, MO, USA) cell apoptosis assay kit according to the instruction provided with the kit. In brief, about 1.5 × 10^5 cells were plated in 6-well plates and treated with galaxamide and representative compound (0, 2.5, 5, and 10 μg/mL) for 48 h. The cells were resuspended in […] binding buffer. Afterwards, […] was added and then incubated in darkness at room temperature for 10 min. The cells were again resuspended in […] binding buffer and stained with […] (propidium iodide). The prepared cells were then analyzed using a flow cytometry (Coulter Epics Elite, Miami, FL, USA). The cells in the FITC-positive and PI-negative fractions were regarded as apoptotic cells.

[7] = test system: MCF-7 cells; test: Cell cycle analysis by PI staining, flow cytometry; assay type: cell-based, human; details: MCF-7, 2.5, 5.0 and 10.0 μg/mL, 48 h
Description: MCF-7 cells with the density of about 1.5 × 10^5 were incubated with galaxamide and representative analogue (0, 2.5, 5, and 10 μg/mL) for 48 h. Afterwards, collected cells were washed twice with PBS and centrifugation (1000 rpm, 5 min), then fixed using 70% ethanol for 12 h at 4°C. Ethanol was removed by centrifugation (2000 rpm, 5 min), and the cells were washed twice with PBS. Cells were then resuspended in […] and kept at 37°C for 15 min. The cell cycle was analyzed by flow cytometry measuring the amount of PI-labeled DNA in fixed cells.

[8] = test system: MCF-7 cells; test: Mitochondrial membrane potential, JC-1 staining, flow cytometry; assay type: cell-based, human; details: MCF-7, 2.5, 5.0 and 10.0 μg/mL, 48 h
Description: The cell suspension (2 mL) with a concentration of 1 × 10^5 cells/mL was inoculated per well in 6-well plates for 12 h. After 48 h of incubation with galaxamide and representative compound at the concentration of 0, 2.5, 5, and 10 μg/mL, the supernatant was aspirated and the cells were washed twice with PBS and digested with 0.25% trypsin. The cells were suspended by pipetting, followed by centrifugation (1000 rpm, 5 min). The supernatant was aspirated and the cells were washed with PBS and centrifuged again to obtain a cell pellet. The cells were resuspended by adding and thoroughly mixing 500 μL of PBS in a microcentrifuge tube. Finally, the samples were stained with JC-1 (5,5′,6,6′-tetrachloro-1,1′,3,3′-tetraethylbenzimi-dazolylcarbocyanine iodide) and incubated in darkness at 37°C for 15 min. After the treatment, the cells were detected by flow cytometry.

[9] = test system: MCF-7 cells; test: Intracellular ROS assay, DCFH-DA, flow cytometry; assay type: cell-based, human; details: MCF-7, 2.5, 5.0 and 10.0 μg/mL, 48 h
Description: Two milliliters of cell suspension with a cell concentration of 1 × 10^5 cells/mL was inoculated per well in 6-well plates. After synchronization, the cells were incubated with galaxamide and representative analogue (0, 2.5, 5, and 10 μg/mL) for 48 h. Afterwards, the supernatant was aspirated and the cells were washed twice with PBS and digested with 0.25% trypsin. Then, DMEM supplemented with 10% fetal bovine serum was added to terminate digestion. The cells were suspended by pipetting, followed by centrifugation (1000 rpm, 5 min). The supernatant was aspirated and the cells were washed once with PBS and centrifuged again to obtain a cell pellet. The cells were resuspended by adding and thoroughly mixing […] in a microcentrifuge tube. The samples were then stained with DCFH-DA ([…]) and analyzed by flow cytometry.

[10] = from Table 1 IC50 values (fits MCF-7)

## CC(C)C[C@@H]1NC(=O)[C@H](CC(C)C)N(C)C(=O)[C@H](Cc2ccccc2)NC(=O)[C@H](CC(C)C)N(C)C(=O)[C@H](CC(C)C)NC1=O [Compound 1, cyclo(Phe-N-Me-Leu-Leu-Leu-N-Me-Leu)]
[1]
  IC50 (μg/mL) values in various cell lines, HUVECs: >40 µg/mL
[2]; 48 h
  IC50 (μg/mL) values in various cell lines, MCF-7: 4.76 ± 1.36 µg/mL (≈ 7.58 µM)
[3]
  IC50 (μg/mL) values in various cell lines, HepG2: 6.25 ± 1.03 µg/mL (≈ 9.95 µM)
[4]
  IC50 (μg/mL) values in various cell lines, HeLa: 13.22 ± 1.12 µg/mL (≈ 21.1 µM)
[5]
  IC50 (μg/mL) values in various cell lines, MD-MBA-231: 5.83 ± 0.45 µg/mL (≈ 9.29 µM)

## CC(C)C[C@@H]1NC(=O)[C@H](CC(C)C)N(C)C(=O)[C@H](Cc2ccc3ccccc3c2)NC(=O)[C@H](CC(C)C)N(C)C(=O)[C@H](CC(C)C)NC1=O [Compound 2, cyclo(Nal-N-Me-Leu-Leu-Leu-N-Me-Leu)] (HELM PEPTIDE1{[O=C([C@H](Cc1ccc2ccccc2c1)N[*:1])[*:2]].[meL].L.L.[meL]}$PEPTIDE1,PEPTIDE1,1:R1-5:R2$$$V2.0)
[1]
  IC50 (μg/mL) values in various cell lines, HUVECs: >40 µg/mL
[2]; 48 h
  IC50 (μg/mL) values in various cell lines, MCF-7: 3.16 ± 0.92 µg/mL (≈ 4.66 µM)
[3]
  IC50 (μg/mL) values in various cell lines, HepG2: 8.42 ± 1.82 µg/mL (≈ 12.4 µM)
[5]
  IC50 (μg/mL) values in various cell lines, MD-MBA-231: 4.48 ± 2.24 µg/mL (≈ 6.61 µM)

## CC(C)C[C@@H]1NC(=O)[C@H](CC(C)C)N(C)C(=O)[C@H](Cc2c[nH]c3ccccc23)NC(=O)[C@H](CC(C)C)N(C)C(=O)[C@H](CC(C)C)NC1=O [Compound 3, cyclo(Trp-N-Me-Leu-Leu-Leu-N-Me-Leu)] (HELM PEPTIDE1{L.L.[meL].W.[meL]}$PEPTIDE1,PEPTIDE1,1:R1-5:R2$$$V2.0)
[6]
  induction of apoptosis: significantly induced the apoptosis of human breast cancer MCF-7 cells in a dose-dependent manner
[1]
  IC50 (μg/mL) values in various cell lines, HUVECs: >40 µg/mL
[7]
  cell cycle arrest: induced a significant G1 phase arrest of cell cycle progression in a dose-dependent manner
[2]
  cytotoxicity relative to parent structure galaxamide: almost sixfold higher cytotoxicity
[2]; 48 h
  IC50 (μg/mL) values in various cell lines, MCF-7: 1.72 ± 0.85 µg/mL (≈ 2.58 µM)
[2]; [10]
  fold less active than doxorubicin: 3.44 fold
  fold more active than anticancer drug DPP: 8.49 fold
[3]
  IC50 (μg/mL) values in various cell lines, HepG2: 3.98 ± 0.71 µg/mL (≈ 5.97 µM)
[4]
  IC50 (μg/mL) values in various cell lines, HeLa: 5.32 ± 0.42 µg/mL (≈ 7.98 µM)
[5]
  IC50 (μg/mL) values in various cell lines, MD-MBA-231: 3.51 ± 1.32 µg/mL (≈ 5.26 µM)
[8]
  JC-1 fluorescence ratio (red/green), MMP: reduced dose dependently
[9]
  intracellular ROS: induced ROS in a dose-dependent manner

## N.N.[Cl][Pt][Cl] [DPP, reference compound]
[2]; MCF-7, MTT, 48 h, mean ± SD of three experiments
  IC50 (μg/mL) values in various cell lines, MCF-7: 14.61 ± 2.01 µg/mL
[3]; HepG2, MTT, mean ± SD of three experiments
  IC50 (μg/mL) values in various cell lines, HepG2: 10.43 ± 1.23 µg/mL
[4]; HeLa, MTT, mean ± SD of three experiments
  IC50 (μg/mL) values in various cell lines, HeLa: 8.90 ± 0.89 µg/mL
[5]; MD-MBA-231, MTT, mean ± SD of three experiments
  IC50 (μg/mL) values in various cell lines, MD-MBA-231: 13.75 ± 0.56 µg/mL

## COc1cccc2c1C(=O)c1c(O)c3c(c(O)c1C2=O)C[C@@](O)(C(=O)CO)C[C@@H]3O[C@H]1C[C@H](N)[C@H](O)[C@H](C)O1 [Doxorubicin, reference compound]
[2]; Homo sapiens, MCF7, MCF-7, MTT, 48 h, mean ± SD of three experiments, read-out: IC50 (μg/mL) values in various cell lines, MCF-7
  IC50: 0.5 ± 0.48 µg/mL (≈ 0.92 µM)
[3]; Homo sapiens, HepG2, MTT, mean ± SD of three experiments, read-out: IC50 (μg/mL) values in various cell lines, HepG2
  IC50: 2.27 ± 0.24 µg/mL (≈ 4.18 µM)
[4]; Homo sapiens, HeLa, MTT, mean ± SD of three experiments, read-out: IC50 (μg/mL) values in various cell lines, HeLa
  IC50: 0.32 ± 0.22 µg/mL (≈ 0.589 µM)
[5]; Homo sapiens, MD-MBA-231, MTT, mean ± SD of three experiments, read-out: IC50 (μg/mL) values in various cell lines, MD-MBA-231
  IC50: 1.29 ± 0.57 µg/mL (≈ 2.37 µM)

## CC(C)C[C@@H]1NC(=O)[C@H](CC(C)C)N(C)C(=O)[C@H](CC(C)C)NC(=O)[C@H](CC(C)C)N(C)C(=O)[C@H](CC(C)C)NC1=O [Galaxamide, galaxamide] (HELM PEPTIDE1{L.L.[meL].L.[meL]}$PEPTIDE1,PEPTIDE1,1:R1-5:R2$$$V2.0)
[8]
  JC-1 fluorescence ratio (red/green), MMP: reduced dose dependently
[9]
  intracellular ROS: induced ROS in a dose-dependent manner
